In this assay the test system is L1210 leukemia ip in BDF1 mice, survival T/C. Description: NCI In Vivo Anticancer Drug Screen. Data for tumor model L1210 Leukemia (intraperitoneal) in B6D2F1 (BDF1) mice. The following applies: endpoint: mean survival time, higher = longer survival. An outline of the steps:
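Value reflects the ratio of survival in compound-treated mice to survival in vehicle-treated controls, with both groups carrying the same transplanted tumor.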

[1] abbreviates: dose: 100.0 mg/kg/injection, schedule: Q04DX003 (ip), vehicle: saline with Tween-80.
The mark [2] stands for this setting: dose: 100.0 mg/kg/injection, schedule: Q01DX001 (ip), vehicle: saline.
The mark [3] stands for this setting: dose: 200.0 mg/kg/injection, schedule: Q01DX001 (ip), vehicle: saline.
[4] abbreviates: dose: 400.0 mg/kg/injection, schedule: Q01DX001 (ip), vehicle: saline.

SMILES strings stand for the structures. Where “and” joins values, the source holds several entries; their conditions need not be identical. Equal entries are not always repeated. Toxic doses and inconclusive results are not listed.

In the case of `COc1cc2c3c(c4ccc(OC)c(OC)c4c2cc1OC)CN1CCC[C@@H]1C3`, the T/C reads like this: (dose: 1.25 mg/kg/injection, schedule: Q01DX Z (im), vehicle: water) 103 % of control; (dose: 1.25 mg/kg/injection, schedule: Q01DX Z (ip), vehicle: water) 103 % of control; (dose: 1.25 mg/kg/injection, schedule: Q01DX Z (sc), vehicle: water) 106 % of control; (dose: 1.25 mg/kg/injection, schedule: Q02DX Z (ip), vehicle: water) 105 % of control; (dose: 2.2 mg/kg/injection, schedule: Q01DX Z (ip), vehicle: carboxymethylcellulose (CMC)) 111 % of control; (dose: 2.2 mg/kg/injection, schedule: Q01DX Z (ip), vehicle: other) 107 % of control. Further, the T/C is, setting by setting: (dose: 2.5 mg/kg/injection, schedule: Q01DX Z (im), vehicle: water) 111 % of control; (dose: 2.5 mg/kg/injection, schedule: Q01DX Z (ip), vehicle: water) 94 % of control and 106 % of control; (dose: 2.5 mg/kg/injection, schedule: Q01DX Z (sc), vehicle: water) 106 % of control; (dose: 2.5 mg/kg/injection, schedule: Q02DX Z (ip), vehicle: water) 109 % of control; (dose: 2.5 mg/kg/injection, schedule: Q03DX Z (ip), vehicle: water) 105 % of control; (dose: 4.0 mg/kg/injection, schedule: Q01DX Z (ip), vehicle: water) 94 % of control. Moreover, the T/C is, setting by setting: (dose: 4.4 mg/kg/injection, schedule: Q01DX Z (ip), vehicle: carboxymethylcellulose (CMC)) 114 % of control and 117 % of control; (dose: 5.0 mg/kg/injection, schedule: Q01DX005 (iv), vehicle: water) 106 % of control; (dose: 5.0 mg/kg/injection, schedule: Q01DX Z (im), vehicle: water) 118 % of control; (dose: 5.0 mg/kg/injection, schedule: Q01DX Z (ip), vehicle: water) 103 % of control and 117 % of control and 124 % of control; (dose: 5.0 mg/kg/injection, schedule: Q01DX Z (oral), vehicle: water) 112 % of control and 115 % of control; (dose: 5.0 mg/kg/injection, schedule: Q01DX Z (sc), vehicle: water) 122 % of control. Besides, the T/C is 95 % of control and 103 % of control (dose: 5.0 mg/kg/injection, schedule: Q02DX Z (ip), vehicle: water); 103 % of control and 106 % of control (dose: 5.0 mg/kg/injection, schedule: Q03DX Z (ip), vehicle: water); 109 % of control (dose: 6.0 mg/kg/injection, schedule: Q01DX Z (ip), vehicle: water); 117 % of control and 118 % of control (dose: 6.6 mg/kg/injection, schedule: Q01DX Z (ip), vehicle: carboxymethylcellulose (CMC)); 117 % of control (dose: 6.6 mg/kg/injection, schedule: Q01DX Z (ip), vehicle: other); 115 % of control (dose: 7.5 mg/kg/injection, schedule: Q01DX Z (ip), vehicle: water). Also, the T/C reads like this: (dose: 8.0 mg/kg/injection, schedule: Q01DX Z (ip), vehicle: water) 97 % of control and 101 % of control; (dose: 9.0 mg/kg/injection, schedule: Q01DX Z (ip), vehicle: water) 120 % of control; (dose: 10.0 mg/kg/injection, schedule: Q01DX005 (iv), vehicle: water) 114 % of control; (dose: 10.0 mg/kg/injection, schedule: Q01DX Z (im), vehicle: water) 97 % of control; (dose: 10.0 mg/kg/injection, schedule: Q01DX Z (ip), vehicle: water) 117 % of control; (dose: 10.0 mg/kg/injection, schedule: Q01DX Z (sc), vehicle: water) 100 % of control. Besides, the T/C (dose: 10.0 mg/kg/injection, schedule: Q02DX Z (ip), vehicle: water) was 111 % of control and 112 % of control; the T/C (dose: 10.0 mg/kg/injection, schedule: Q02DX Z (oral), vehicle: water) is 121 % of control; the T/C (dose: 12.0 mg/kg/injection, schedule: Q01DX Z (ip), vehicle: water) was 114 % of control and 122 % of control; the T/C (dose: 12.5 mg/kg/injection, schedule: Q01DX Z (ip), vehicle: water) is 120 % of control; the T/C (dose: 15.0 mg/kg/injection, schedule: Q01DX Z (ip), vehicle: other) is 151 % of control; the T/C (dose: 15.0 mg/kg/injection, schedule: Q01DX Z (ip), vehicle: water) is 95 % of control. The T/C by setting is: (dose: 20.0 mg/kg/injection, schedule: Q01DX001 (ip), vehicle: water) 106 % of control; (dose: 20.0 mg/kg/injection, schedule: Q01DX Z (ip), vehicle: water) 98 % of control and 104 % of control; (dose: 20.0 mg/kg/injection, schedule: Q07DX003 (ip), vehicle: water) 123 % of control; (dose: 22.0 mg/kg/injection, schedule: Q01DX Z (ip), vehicle: carboxymethylcellulose (CMC)) 92 % of control; (dose: 30.0 mg/kg/injection, schedule: Q01DX001 (ip), vehicle: water) 114 % of control; (dose: 30.0 mg/kg/injection, schedule: Q02DX Z (ip), vehicle: water) 120 % of control. Further, the T/C is, setting by setting: (dose: 30.0 mg/kg/injection, schedule: Q02DX Z (oral), vehicle: water) 90 % of control; (dose: 30.0 mg/kg/injection, schedule: Q03DX Z (ip), vehicle: water) 124 % of control; (dose: 30.0 mg/kg/injection, schedule: Q07DX003 (ip), vehicle: water) 103 % of control; (dose: 33.0 mg/kg/injection, schedule: Q01DX Z (ip), vehicle: carboxymethylcellulose (CMC)) 114 % of control; (dose: 40.0 mg/kg/injection, schedule: Q01DX001 (ip), vehicle: water) 114 % of control; (dose: 40.0 mg/kg/injection, schedule: Q01DX Z (ip), vehicle: water) 98 % of control and 102 % of control. The T/C by setting is: (dose: 40.0 mg/kg/injection, schedule: Q01DX Z (oral), vehicle: water) 92 % of control; (dose: 40.0 mg/kg/injection, schedule: Q03DX Z (ip), vehicle: water) 88 % of control; (dose: 80.0 mg/kg/injection, schedule: Q01DX001 (ip), vehicle: saline) 117 % of control; (dose: 80.0 mg/kg/injection, schedule: Q07DX Z (ip), vehicle: saline) 114 % of control; (dose: 160.0 mg/kg/injection, schedule: Q07DX Z (ip), vehicle: saline) 105 % of control.

For the compound `NC(=O)CC(NC(=O)OCc1ccccc1)C(=O)OCc1ccccc1` (stereo not given), the T/C by setting is: (dose: 100.0 mg/kg/injection, schedule: Q01DX009 (ip), vehicle: saline with Tween-80) 106 % of control; under setting [1], 96 % of control; (dose: 200.0 mg/kg/injection, schedule: Q01DX009 (ip), vehicle: saline with Tween-80) 95 % of control; (dose: 200.0 mg/kg/injection, schedule: Q04DX003 (ip), vehicle: saline with Tween-80) 96 % of control; (dose: 400.0 mg/kg/injection, schedule: Q01DX009 (ip), vehicle: saline with Tween-80) 93 % of control; (dose: 400.0 mg/kg/injection, schedule: Q04DX003 (ip), vehicle: saline with Tween-80) 91 % of control.

Consider `COc1c(N)c(C)nc(Cl)c1C#N`, for which the T/C was 97 % of control under setting [2], 103 % of control under setting [3] and 109 % of control under setting [4].

In the case of `Nc1nc2ccccc2c(=O)[nH]1`, the T/C is 110 % of control (dose: 25.0 mg/kg/injection, schedule: Q04DX003 (ip), vehicle: saline with Tween-80); 96 % of control (dose: 50.0 mg/kg/injection, schedule: Q04DX003 (ip), vehicle: saline with Tween-80); 102 % of control and 106 % of control under setting [1].

For `O=C(Sc1n[nH]c(=O)[nH]c1=O)c1ccccc1`, the T/C is 109 % of control under setting [2], 107 % of control under setting [3] and 105 % of control under setting [4].

With `CC(=O)Nc1ccc(NC(=O)c2ccc([As](O)O)cc2)cc1`, the T/C was 100 % of control (dose: 25.0 mg/kg/injection, schedule: Q01DX001 (ip), vehicle: carboxymethylcellulose (CMC)); 102 % of control (dose: 50.0 mg/kg/injection, schedule: Q01DX001 (ip), vehicle: carboxymethylcellulose (CMC)); 107 % of control (dose: 100.0 mg/kg/injection, schedule: Q01DX001 (ip), vehicle: carboxymethylcellulose (CMC)); 113 % of control (dose: 200.0 mg/kg/injection, schedule: Q01DX001 (ip), vehicle: carboxymethylcellulose (CMC)).

On to `Nc1nc(O)c2[nH]c(N=Nc3ccc(-c4ccc(N=Nc5nc6nc(N)nc(O)c6[nH]5)cc4)cc3)nc2n1`, for which the T/C reads like this: (dose: 100.0 mg/kg/injection, schedule: Q04DX003 (ip), vehicle: Klucel (hydroxypropylcellulose) (HPC)) 98 % of control; (dose: 200.0 mg/kg/injection, schedule: Q04DX003 (ip), vehicle: Klucel (hydroxypropylcellulose) (HPC)) 93 % of control; (dose: 400.0 mg/kg/injection, schedule: Q04DX003 (ip), vehicle: Klucel (hydroxypropylcellulose) (HPC)) 88 % of control.

These data come from PubChem BioAssay AID248 (DTP/NCI, 2004).
